Measurements from PubChem BioAssay AID330 (DTP/NCI, 2004).
Values joined by “and” are separate entries in the source; they are usually repeats but may differ in a detail not shown here. Equal entries are not always repeated. Inconclusive results and toxic doses are left out. How the source made its calls: active means survival T/C of 150% or more; inactive means T/C below 125% in these data.

Tested on: P388 leukemia ip, CD2F1 mice, survival T/C
Assay: NCI In Vivo Anticancer Drug Screen. Data for tumor model P388 Leukemia (intraperitoneal) in CD2F1 (CDF1) mice
Settings: endpoint: median survival time, higher = longer survival
How it was run: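 Mice carrying the transplanted tumor received test compound or vehicle. Survival was recorded in each group, and the value is the treated-group measurement divided by that of the vehicle-treated control group.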

[1] = dose: 100.0 mg/kg/injection, schedule: Q01DX009 (ip), vehicle: saline
[2] = dose: 50.0 mg/kg/injection, schedule: Q01DX005 (ip), vehicle: Klucel (hydroxypropylcellulose) (HPC)
[3] = dose: 120.0 mg/kg/injection, schedule: Q01DX005 (ip), vehicle: saline with Tween-80
[4] = dose: 240.0 mg/kg/injection, schedule: Q01DX005 (ip), vehicle: saline with Tween-80
[5] = dose: 3.12 mg/kg/injection, schedule: Q01DX009 (ip), vehicle: saline
[6] = dose: 12.5 mg/kg/injection, schedule: Q01DX009 (ip), vehicle: saline with Tween-80
[7] = dose: 25.0 mg/kg/injection, schedule: Q01DX009 (ip), vehicle: saline
[8] = dose: 100.0 mg/kg/injection, schedule: Q04DX003 (ip), vehicle: saline
[9] = dose: 50.0 mg/kg/injection, schedule: Q01DX009 (ip), vehicle: saline with Tween-80
[10] = dose: 100.0 mg/kg/injection, schedule: Q01DX009 (ip), vehicle: saline with Tween-80
[11] = dose: 200.0 mg/kg/injection, schedule: Q01DX009 (ip), vehicle: saline with Tween-80
[12] = dose: 60.0 mg/kg/injection, schedule: Q01DX005 (ip), vehicle: saline with Tween-80

Measured: T/C

CC(C)(C)CC(C)(C)c1ccc(O)cc1
inactive: dose: 66.0 mg/kg/injection, schedule: Q01DX009 (ip), vehicle: saline 100 % of control | [1] 100 % of control | dose: 150.0 mg/kg/injection, schedule: Q01DX009 (ip), vehicle: saline 122 % of control | dose: 200.0 mg/kg/injection, schedule: Q01DX009 (ip), vehicle: saline sonified 118 % of control

Nn1cnc2[nH]ncc2c1=O
inactive: dose: 60.0 mg/kg/injection, schedule: Q01DX005 (ip), vehicle: saline 99 % of control | dose: 120.0 mg/kg/injection, schedule: Q01DX005 (ip), vehicle: saline 99 % of control | dose: 240.0 mg/kg/injection, schedule: Q01DX005 (ip), vehicle: saline 105 % of control

Cc1cc(C2(O)CCCc3ccccc32)[n+]([O-])cc1C (configuration not stated)
inactive: dose: 50.0 mg/kg/injection, schedule: Q01DX005 (ip), vehicle: saline + Tween-80 + alcohol 106 % of control | dose: 100.0 mg/kg/injection, schedule: Q01DX005 (ip), vehicle: saline + Tween-80 + alcohol 104 % of control | dose: 200.0 mg/kg/injection, schedule: Q01DX005 (ip), vehicle: saline + Tween-80 + alcohol 107 % of control

CN(CCOc1ccccc1)Cc1ccccc1
inactive: dose: 60.0 mg/kg/injection, schedule: Q01DX005 (ip), vehicle: Klucel (hydroxypropylcellulose) (HPC) 97 % of control | dose: 120.0 mg/kg/injection, schedule: Q01DX005 (ip), vehicle: Klucel (hydroxypropylcellulose) (HPC) 104 % of control | dose: 240.0 mg/kg/injection, schedule: Q01DX005 (ip), vehicle: Klucel (hydroxypropylcellulose) (HPC) 105 % of control

OC(CCl)Cn1nc2ccc3ccccc3c2n1 (configuration not stated)
inactive: [2] 102 % of control | dose: 100.0 mg/kg/injection, schedule: Q01DX005 (ip), vehicle: Klucel (hydroxypropylcellulose) (HPC) 100 % of control | dose: 100.0 mg/kg/injection, schedule: Q04DX003 (ip), vehicle: Klucel (hydroxypropylcellulose) (HPC) 103 % of control | dose: 200.0 mg/kg/injection, schedule: Q01DX005 (ip), vehicle: Klucel (hydroxypropylcellulose) (HPC) 101 % of control | dose: 200.0 mg/kg/injection, schedule: Q04DX003 (ip), vehicle: Klucel (hydroxypropylcellulose) (HPC) 102 % of control | dose: 400.0 mg/kg/injection, schedule: Q04DX003 (ip), vehicle: Klucel (hydroxypropylcellulose) (HPC) 96 % of control

CCCCN(CCCC)C1/C(=N\O)C2CC1C1CC=CC21 (configuration not stated)
inactive: dose: 60.0 mg/kg/injection, schedule: Q01DX005 (ip), vehicle: saline + Tween-80 + alcohol 95 % of control | dose: 120.0 mg/kg/injection, schedule: Q01DX005 (ip), vehicle: saline + Tween-80 + alcohol 94 % of control | dose: 240.0 mg/kg/injection, schedule: Q01DX005 (ip), vehicle: saline + Tween-80 + alcohol 94 % of control

CCn1c(=S)[nH]c2sc3c(c2c1=O)CCCCC3
inactive: [3] 89 % of control | [4] 101 % of control

Cc1cccc(N(CCOS(C)(=O)=O)CCOS(C)(=O)=O)c1
inactive: dose: 1.56 mg/kg/injection, schedule: Q01DX009 (ip), vehicle: saline 95 % of control | [5] 98 % of control | dose: 6.25 mg/kg/injection, schedule: Q01DX009 (ip), vehicle: saline 100 % of control | [6] 87 % of control | [7] 102 % of control

COc1cc(-c2ccc(Nc3ccccc3C(=O)O)c(OC)c2)ccc1N
active: dose: 100.0 mg/kg/injection, schedule: Q04DX003 (ip), vehicle: saline with Tween-80 150 % of control
inactive: dose: 50.0 mg/kg/injection, schedule: Q04DX003 (ip), vehicle: saline with Tween-80 110 % of control | dose: 132.0 mg/kg/injection, schedule: Q04DX003 (ip), vehicle: saline with Tween-80 104 % of control

CCCc1cc(=O)n(-c2ccc([N+](=O)[O-])cn2)c(=S)[nH]1
inactive: dose: 12.5 mg/kg/injection, schedule: Q01DX005 (ip), vehicle: Klucel (hydroxypropylcellulose) (HPC) 95 % of control | dose: 25.0 mg/kg/injection, schedule: Q01DX005 (ip), vehicle: Klucel (hydroxypropylcellulose) (HPC) 106 % of control | [2] 101 % of control and 116 % of control

COC(=O)CCC#N
inactive: [1] 97 % of control | dose: 200.0 mg/kg/injection, schedule: Q01DX009 (ip), vehicle: saline 109 % of control | dose: 400.0 mg/kg/injection, schedule: Q01DX009 (ip), vehicle: saline 107 % of control

O=C1C/C(=N\Nc2nc(-c3ccc(Cl)cc3)cs2)C(c2ccccc2)N1c1ccccc1 (configuration not stated)
inactive: dose: 100.0 mg/kg/injection, schedule: Q01DX001 (ip), vehicle: saline with Tween-80 98 % of control | dose: 200.0 mg/kg/injection, schedule: Q01DX001 (ip), vehicle: saline with Tween-80 90 % of control | dose: 400.0 mg/kg/injection, schedule: Q01DX001 (ip), vehicle: saline with Tween-80 90 % of control

CCOc1c(N=Nc2ccccc2Cl)c(C)nn1C(N)=S
inactive: dose: 3.75 mg/kg/injection, schedule: Q01DX005 (ip), vehicle: Klucel + Tween-80 103 % of control | dose: 7.5 mg/kg/injection, schedule: Q01DX005 (ip), vehicle: Klucel + Tween-80 103 % of control | dose: 15.0 mg/kg/injection, schedule: Q01DX005 (ip), vehicle: Klucel + Tween-80 100 % of control and 110 % of control

COc1cccc(C(=O)CC[N+](C)(C)C)c1
inactive: dose: 3.13 mg/kg/injection, schedule: Q01DX009 (ip), vehicle: saline with Tween-80 100 % of control | dose: 6.25 mg/kg/injection, schedule: Q01DX009 (ip), vehicle: saline with Tween-80 102 % of control | [6] 103 % of control

O=C1CSC(c2cc(O)ccc2O)N1c1nncs1 (configuration not stated)
inactive: dose: 50.0 mg/kg/injection, schedule: Q01DX005 (ip), vehicle: saline with Tween-80 90 % of control | dose: 100.0 mg/kg/injection, schedule: Q01DX005 (ip), vehicle: saline with Tween-80 97 % of control | dose: 200.0 mg/kg/injection, schedule: Q01DX005 (ip), vehicle: saline with Tween-80 91 % of control

NC(=O)CCn1cnc2c(N)ncnc21
inactive: dose: 25.0 mg/kg/injection, schedule: Q04DX003 (ip), vehicle: saline 100 % of control | dose: 50.0 mg/kg/injection, schedule: Q04DX003 (ip), vehicle: saline 100 % of control | [8] 99 % of control

CCCCC1(CC(=O)OCC)SCCN1C(N)=O (configuration not stated)
inactive: dose: 50.0 mg/kg/injection, schedule: Q01DX009 (ip), vehicle: Klucel (hydroxypropylcellulose) (HPC) 100 % of control | dose: 100.0 mg/kg/injection, schedule: Q01DX009 (ip), vehicle: Klucel (hydroxypropylcellulose) (HPC) 108 % of control | dose: 200.0 mg/kg/injection, schedule: Q01DX009 (ip), vehicle: Klucel (hydroxypropylcellulose) (HPC) 106 % of control

CC1(C)CC(NC(=O)c2ccccc2)C(=O)O1 (configuration not stated)
inactive: [9] 99 % of control | [10] 100 % of control | [11] 98 % of control

CCN(CC)c1cccc(OC(=O)Nc2cccc(C(F)(F)F)c2)c1
inactive: [12] 106 % of control | [3] 94 % of control | [4] 97 % of control

N#CSc1ccc2nc(N)sc2c1
inactive: dose: 6.25 mg/kg/injection, schedule: Q01DX009 (ip), vehicle: Klucel (hydroxypropylcellulose) (HPC) 111 % of control | dose: 12.5 mg/kg/injection, schedule: Q01DX009 (ip), vehicle: Klucel (hydroxypropylcellulose) (HPC) 111 % of control | dose: 25.0 mg/kg/injection, schedule: Q01DX009 (ip), vehicle: Klucel (hydroxypropylcellulose) (HPC) 104 % of control

COc1ccc(-c2c(C(=O)O)oc3cc(O)ccc3c2=O)cc1OC
inactive: [12] 99 % of control | [3] 97 % of control | [4] 96 % of control

[Cl][Sn]([c]1ccccc1)[c]1ccccc1
inactive: [5] 86 % of control | dose: 12.5 mg/kg/injection, schedule: Q04DX003 (ip), vehicle: saline 114 % of control
active: dose: 1.8 mg/kg/injection, schedule: Q03HX015 (ip), vehicle: saline 150 % of control | dose: 2.7 mg/kg/injection, schedule: Q03HX015 (ip), vehicle: saline 152 % of control | dose: 4.0 mg/kg/injection, schedule: Q03HX015 (ip), vehicle: saline 163 % of control | dose: 5.3 mg/kg/injection, schedule: Q01DX005 (ip), vehicle: saline 154 % of control | dose: 12.0 mg/kg/injection, schedule: Q01DX005 (ip), vehicle: saline 163 % of control | dose: 12.5 mg/kg/injection, schedule: Q01DX009 (ip), vehicle: saline 163 % of control | [7] 198 % of control | [8] 154 % of control

C/C=C(\C)C(=O)OC1CC(C)(O)C(=O)C(OC(=O)/C(C)=C/C)C2(C)CCC(O)(C(C)C)C12 (configuration not stated)
inactive: [9] 105 % of control | [10] 101 % of control | [11] 100 % of control | dose: 400.0 mg/kg/injection, schedule: Q01DX009 (ip), vehicle: saline with Tween-80 95 % of control
